Reference: patent US20230372318A1, “METHODS FOR TREATING A SUBJECT HAVING MULTIPLE SYSTEM ATROPHY” (Theravance Biopharma R&D IP, LLC, priority 2022, published 2023)

Tests used:
human recombinant SERT = target: T1, human recombinant SERT (Homo sapiens, UniProt P31645); assay: Radioligand binding, [3H]-citalopram, HEK293-hSERT membranes; settings: mean (95% confidence intervals)
T1 construct: expressed in transfected cells; host or cells: HEK293
Excerpt: (§1) The in vitro pharmacology of ampreloxetine at human recombinant and rat native monoamine transporters was characterized as described in Smith et al., Inter. J. Neuropsychopharmcol. (2015) 1-11; and Tsuruda et al., J. Pharmacol. Toxicol. Meth. (2010) 61:192-204. See also, e.g., U.S. Pat. Nos. 8,304,432 B2 and 8,304,433 B2. Radioligands were sourced commercially (Perkin Elmer LifeSciences or GE Healthcare Life Sciences).
(§2) Briefly, membranes prepared from HEK293 (Human Embryonic Kidney 293) or CHO-K1 (Chinese Hamster Ovary-K1) cells stably transfected with human recombinant SERT (HEK293-hSERT), NET (HEK293-hNET), or DAT (CHO-K1-hDAT) were incubated for 1 hr at 22° C. in the absence, or presence, of 4-[2-(2,4,6-trifluorophenoxymethyl)phenyl]piperidine and [^3H]-citalopram (1.0 nM) for SERT, [^3H]-nisoxetine (2.0 nM) for NET, and [^3H]-WIN35428 (3.0 nM) for DAT in 50 mM Tris-HCl, 120 mM NaCl, 5 mM KCl, 0.025% BSA, 100 μM ascorbic acid, pH 7.4. Rat cortical membrane preparations were incubated with [^3H]-citalopram (2.0 nM) for SERT or [^3H]-nisoxetine (4.0 nM) for NET for 1 hr at 22° C. […] Binding and uptake assays were terminated by rapid filtration and radioactivity determined by liquid scintillation spectroscopy. […] Selectivity for NET (rounded to one significant figure) was determined as follows: […]

NET = target: T2, NET (Rattus norvegicus, UniProt Q63380); assay: Ex vivo transporter occupancy in rat spinal cord (NET)
T2 construct: from tissue; host or cells: lumbar spinal cord of orally dosed male Sprague Dawley rats
Protocol: (§3) Adult male Sprague Dawley rats (Charles River) were housed under controlled laboratory conditions (temperature at 21±1° C.) on a 12:12 hour light-dark cycle. Animals were given free access to food and water upon arrival to the facility and animals were acclimatized to their holding room for at least 48 hours. Animals were fasted but allowed free access to water for 15-18 hours prior to dosing.
(§4) Rats (n=6/timepoint/dose level) received a single oral dose of 4-[2-(2,4,6-trifluorophenoxymethyl)phenyl]piperidine (0.3, 1, 5, 10, 30, and 60 mg/kg) and were euthanized by decapitation at specified time points (0.5, 2, 4, 6, and 8 hr for 5 mg/kg dose level; 2 hr for 0.3, 1, 10, 30, and 60 mg/kg dose levels) post-administration. Spinal cords were dissected for ex vivo transporter occupancy and PK assessments from the same animals. The spinal cord was harvested by hydraulic extrusion using phosphate-buffered saline, and the lumbar segment dissected and frozen on dry ice. The remaining spinal cord segments were collected and homogenized in water (25% w/w) for PK analysis. All samples were stored at −80° C. until analysis.
(§5) A kinetic radioligand binding assay was used to determine NET and SERT occupancy in rat spinal cord, as described previously in Bourdet et al., J. Pharm. Exp. Ther. (2012) 341:137-145. PK/PD parameters were estimated by a compartmental modeling approach (WinNonlin Version 5.0.1, Pharsight Corporation). One- and two-compartment PK models with first-order absorption and elimination were evaluated. The one-compartment model was selected. The pharmacodynamics model was an effect compartment Emax model linked directly to the central PK compartment (WinNonlin PK Model 3, PD Model 101). Selection of models was based upon best fit in terms of visual inspection, Akaike Information Criteria, and weighted residual sum of squares using the Gauss-Newton minimization method.

human recombinant NET = target: T3, human recombinant NET (Homo sapiens, UniProt P23975); assay: Radioligand binding, [3H]-nisoxetine, HEK293-hNET membranes; settings: mean (95% confidence intervals)
T3 construct: expressed in transfected cells; host or cells: HEK293
Excerpt: as §1, §2

human recombinant DAT = target: T4, human recombinant DAT (Homo sapiens, UniProt Q01959); assay: Radioligand binding, [3H]-WIN35428, CHO-K1-hDAT membranes; settings: mean
T4 construct: expressed in transfected cells; host or cells: CHO-K1
Excerpt: as §1, §2

healthy subjects = settings: single dose up to 50 mg and multiple doses up to 20 mg once per day; cited from earlier work
[1] = Rat oral pharmacokinetics, one-compartment PK/PD model; format: in vivo
Protocol: as §3, §4, §5

SERT = target: T5, SERT (Rattus norvegicus, UniProt P31652); assay: Ex vivo transporter occupancy in rat spinal cord (SERT)
T5 construct: from tissue; host or cells: lumbar spinal cord of orally dosed male Sprague Dawley rats
Protocol: as §3, §4, §5

rat native NET = assay: [3H]-NE uptake inhibition, rat cortical synaptosomes; format: biochemical; settings: [3H]-NE vs [3H]-5-HT uptake
Excerpt: as §1, §2

[2] = rat, single oral dose, effect compartment PK/PD model
[3] = rat, central PK compartment to effect compartment

T5 sequence (P31652 whole entry): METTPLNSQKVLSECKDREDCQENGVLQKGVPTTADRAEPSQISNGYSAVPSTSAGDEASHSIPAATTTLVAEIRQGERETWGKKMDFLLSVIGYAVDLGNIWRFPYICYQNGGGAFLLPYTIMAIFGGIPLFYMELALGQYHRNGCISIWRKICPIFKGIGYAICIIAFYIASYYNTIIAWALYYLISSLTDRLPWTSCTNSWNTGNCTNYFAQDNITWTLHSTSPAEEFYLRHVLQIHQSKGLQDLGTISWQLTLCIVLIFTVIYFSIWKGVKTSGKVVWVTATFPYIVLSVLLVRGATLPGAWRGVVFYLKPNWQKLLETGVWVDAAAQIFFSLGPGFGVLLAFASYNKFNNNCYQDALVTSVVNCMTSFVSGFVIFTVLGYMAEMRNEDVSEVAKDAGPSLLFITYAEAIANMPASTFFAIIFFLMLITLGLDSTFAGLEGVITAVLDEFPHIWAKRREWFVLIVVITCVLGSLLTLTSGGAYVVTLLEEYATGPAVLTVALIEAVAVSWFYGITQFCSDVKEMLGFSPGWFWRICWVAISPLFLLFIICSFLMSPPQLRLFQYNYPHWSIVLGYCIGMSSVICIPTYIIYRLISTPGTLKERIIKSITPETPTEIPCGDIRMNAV
T2 sequence (Q63380 1-617): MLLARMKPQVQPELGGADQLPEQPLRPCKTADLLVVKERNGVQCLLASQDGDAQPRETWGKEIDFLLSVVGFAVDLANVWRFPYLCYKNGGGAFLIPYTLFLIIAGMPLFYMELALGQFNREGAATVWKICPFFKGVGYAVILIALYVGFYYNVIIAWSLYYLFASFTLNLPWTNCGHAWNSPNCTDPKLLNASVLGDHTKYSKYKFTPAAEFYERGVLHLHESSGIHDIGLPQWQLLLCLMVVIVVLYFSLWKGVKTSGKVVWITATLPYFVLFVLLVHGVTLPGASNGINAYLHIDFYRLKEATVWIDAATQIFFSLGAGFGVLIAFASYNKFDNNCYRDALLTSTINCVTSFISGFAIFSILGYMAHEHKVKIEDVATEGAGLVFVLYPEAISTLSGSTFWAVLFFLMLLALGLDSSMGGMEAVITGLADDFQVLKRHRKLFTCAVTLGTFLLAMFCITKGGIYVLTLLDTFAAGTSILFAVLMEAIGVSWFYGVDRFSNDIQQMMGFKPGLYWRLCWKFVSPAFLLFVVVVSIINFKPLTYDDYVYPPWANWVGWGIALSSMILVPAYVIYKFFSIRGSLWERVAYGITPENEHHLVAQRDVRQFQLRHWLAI
T4 sequence (Q01959 whole entry): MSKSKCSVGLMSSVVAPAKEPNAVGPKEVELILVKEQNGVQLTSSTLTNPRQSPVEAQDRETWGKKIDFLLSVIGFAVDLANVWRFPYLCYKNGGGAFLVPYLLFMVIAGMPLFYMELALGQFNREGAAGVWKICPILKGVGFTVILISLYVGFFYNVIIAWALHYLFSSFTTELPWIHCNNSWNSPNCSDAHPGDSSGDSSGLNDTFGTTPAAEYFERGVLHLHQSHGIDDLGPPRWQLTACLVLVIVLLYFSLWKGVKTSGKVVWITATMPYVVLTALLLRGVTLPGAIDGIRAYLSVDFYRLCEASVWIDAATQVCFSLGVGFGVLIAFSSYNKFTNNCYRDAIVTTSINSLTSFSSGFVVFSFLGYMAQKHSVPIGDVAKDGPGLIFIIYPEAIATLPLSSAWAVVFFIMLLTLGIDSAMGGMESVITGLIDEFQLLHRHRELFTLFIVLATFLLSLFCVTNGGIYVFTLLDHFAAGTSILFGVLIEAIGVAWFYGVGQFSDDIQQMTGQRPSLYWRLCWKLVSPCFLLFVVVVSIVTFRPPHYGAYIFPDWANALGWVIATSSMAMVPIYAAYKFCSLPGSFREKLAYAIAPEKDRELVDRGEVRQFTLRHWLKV
T3 sequence (P23975 whole entry): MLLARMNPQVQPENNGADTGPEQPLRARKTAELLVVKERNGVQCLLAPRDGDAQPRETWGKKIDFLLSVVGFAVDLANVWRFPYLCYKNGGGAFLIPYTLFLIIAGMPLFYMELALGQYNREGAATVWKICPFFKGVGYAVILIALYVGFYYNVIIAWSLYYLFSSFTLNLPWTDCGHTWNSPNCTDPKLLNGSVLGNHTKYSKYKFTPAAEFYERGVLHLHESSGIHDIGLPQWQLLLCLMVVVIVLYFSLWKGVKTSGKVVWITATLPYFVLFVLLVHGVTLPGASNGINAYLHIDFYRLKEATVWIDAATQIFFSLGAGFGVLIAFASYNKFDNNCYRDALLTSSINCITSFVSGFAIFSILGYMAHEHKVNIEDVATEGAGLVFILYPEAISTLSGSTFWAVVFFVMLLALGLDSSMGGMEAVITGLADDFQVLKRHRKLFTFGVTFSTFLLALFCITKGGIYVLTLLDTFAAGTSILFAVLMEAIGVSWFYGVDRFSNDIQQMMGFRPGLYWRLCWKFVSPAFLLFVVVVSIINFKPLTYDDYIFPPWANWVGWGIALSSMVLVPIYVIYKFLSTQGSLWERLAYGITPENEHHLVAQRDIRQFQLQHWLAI
T1 sequence (P31645 whole entry): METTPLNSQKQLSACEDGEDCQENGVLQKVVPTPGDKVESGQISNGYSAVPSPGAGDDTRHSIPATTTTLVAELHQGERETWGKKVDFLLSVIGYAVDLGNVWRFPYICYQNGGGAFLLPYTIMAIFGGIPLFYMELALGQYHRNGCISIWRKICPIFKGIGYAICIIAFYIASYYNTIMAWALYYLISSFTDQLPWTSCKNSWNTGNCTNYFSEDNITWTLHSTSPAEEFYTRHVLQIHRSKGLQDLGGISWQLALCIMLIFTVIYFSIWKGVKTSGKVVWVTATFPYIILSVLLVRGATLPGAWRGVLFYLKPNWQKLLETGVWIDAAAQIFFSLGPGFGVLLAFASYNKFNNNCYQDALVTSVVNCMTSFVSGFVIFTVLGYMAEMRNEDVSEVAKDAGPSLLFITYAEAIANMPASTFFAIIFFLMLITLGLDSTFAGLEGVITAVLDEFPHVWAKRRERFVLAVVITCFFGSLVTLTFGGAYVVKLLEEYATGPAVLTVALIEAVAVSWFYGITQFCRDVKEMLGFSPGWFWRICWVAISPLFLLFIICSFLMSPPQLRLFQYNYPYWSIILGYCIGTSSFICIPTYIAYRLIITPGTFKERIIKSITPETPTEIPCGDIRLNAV

## Fc1cc(F)c(OCc2ccccc2C2CCNCC2)c(F)c1 [Ampreloxetine, 4-[2-(2,4,6-trifluorophenoxymethyl)phenyl]piperidine]
Human recombinant SERT
  Transporter Binding: pKi, SERT: 8.5 (8.5, 8.6)
NET; projected from rat EC50 accounting for species differences in plasma protein binding
  EC50: 17.1 nM
NET; rat spinal cord, oral dose
  EC50, plasma concentration associated with 50% NET occupancy: 0.0117 µg/mL
NET; [2]
  Emax, maximal NET occupancy in spinal cord: 92.0 % occupancy
NET; [3]
  keo, first-order equilibration rate constant, NET: 1.78 h⁻¹
Human recombinant NET
  Transporter Binding: pKi, NET: 8.8 (8.8, 8.9)
Human recombinant DAT
  Transporter Binding: pKi, DAT: 6.7
Healthy subjects
  Safety and tolerability: generally well tolerated
[1]
  V/F, volume of the central compartment divided by oral bioavailability: 54.8 L/kg
  k01, first-order absorption rate constant: 0.777 h⁻¹
  k10, elimination rate constant from the central compartment: 0.319 h⁻¹
SERT; rat spinal cord, oral dose
  EC50, plasma concentration associated with 50% SERT occupancy: 0.0508 µg/mL
SERT; [2]
  Emax, maximal SERT occupancy in spinal cord: 79.0 % occupancy
SERT; [3]
  keo, first-order equilibration rate constant, SERT: 11.0 h⁻¹
Rat native NET
  Apparent functional selectivity for NET over SERT: 10 fold
